Results taken from ChEMBL document CHEMBL3351927, “Pyrrole alkaloids from the fruits of Morus alba” (Bioorg Med Chem Lett, 2014).

Biological target: T1, Pancreatic triacylglycerol lipase (Sus scrofa) (UniProt P00591)
T1 sequence (whole entry): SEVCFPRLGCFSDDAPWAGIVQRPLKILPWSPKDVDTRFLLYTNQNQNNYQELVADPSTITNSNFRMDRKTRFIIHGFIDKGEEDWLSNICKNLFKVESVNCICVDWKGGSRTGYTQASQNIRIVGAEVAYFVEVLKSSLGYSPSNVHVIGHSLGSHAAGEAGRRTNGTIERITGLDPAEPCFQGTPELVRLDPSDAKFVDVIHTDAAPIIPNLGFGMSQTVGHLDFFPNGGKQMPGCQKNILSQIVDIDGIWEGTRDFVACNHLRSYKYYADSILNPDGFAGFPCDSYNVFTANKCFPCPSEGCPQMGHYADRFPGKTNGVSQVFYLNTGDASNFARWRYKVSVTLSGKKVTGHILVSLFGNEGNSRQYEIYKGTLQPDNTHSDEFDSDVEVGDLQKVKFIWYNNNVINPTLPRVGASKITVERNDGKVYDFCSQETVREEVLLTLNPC
Assay: Inhibition of porcine pancreatic lipase assessed as p-NPB substrate hydrolysis at 100 uM after 15 mins by microplate reader

Compound | inhibition
O=Cc1ccc2n1C(Cc1ccc(O)cc1)C(=O)OC2 (configuration not stated) | 70%
COCc1ccc(C=O)n1C(C)C(=O)OC (configuration not stated) | 40%
